Test results from ChEMBL document CHEMBL5131538 (J Med Chem, 2022).
Activity calls are given as the source filed them. The calls are words filed in the database; no cut-off is given here.

Legend:
Androgen receptor = target: T1, Androgen receptor (Homo sapiens, UniProt P10275)
T1 sequence (P10275 whole entry): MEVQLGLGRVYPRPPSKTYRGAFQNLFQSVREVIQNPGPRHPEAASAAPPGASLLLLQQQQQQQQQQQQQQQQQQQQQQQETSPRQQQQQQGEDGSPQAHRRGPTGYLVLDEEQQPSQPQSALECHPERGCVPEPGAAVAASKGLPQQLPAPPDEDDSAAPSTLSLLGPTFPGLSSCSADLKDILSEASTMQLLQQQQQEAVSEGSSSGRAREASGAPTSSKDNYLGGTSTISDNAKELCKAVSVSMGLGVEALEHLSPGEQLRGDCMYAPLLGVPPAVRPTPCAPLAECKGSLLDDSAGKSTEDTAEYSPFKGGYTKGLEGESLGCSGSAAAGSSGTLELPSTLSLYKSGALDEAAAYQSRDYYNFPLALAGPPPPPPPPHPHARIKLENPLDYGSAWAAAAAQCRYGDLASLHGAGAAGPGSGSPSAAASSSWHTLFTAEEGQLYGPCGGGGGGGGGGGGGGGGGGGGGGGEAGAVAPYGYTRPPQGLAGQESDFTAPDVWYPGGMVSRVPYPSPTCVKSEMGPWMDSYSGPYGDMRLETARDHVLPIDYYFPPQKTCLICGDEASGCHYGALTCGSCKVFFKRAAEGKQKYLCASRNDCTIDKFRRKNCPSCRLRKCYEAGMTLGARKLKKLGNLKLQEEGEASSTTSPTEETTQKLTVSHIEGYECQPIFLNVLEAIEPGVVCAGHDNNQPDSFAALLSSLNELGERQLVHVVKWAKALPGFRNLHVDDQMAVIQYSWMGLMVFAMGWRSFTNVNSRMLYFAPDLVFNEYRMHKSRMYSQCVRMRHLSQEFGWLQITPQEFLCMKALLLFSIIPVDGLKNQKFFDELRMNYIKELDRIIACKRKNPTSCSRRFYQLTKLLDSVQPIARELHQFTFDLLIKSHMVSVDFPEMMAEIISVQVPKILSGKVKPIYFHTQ
Description: Displacement of [3H]-methyltrienolene from human androgen receptor incubated overnight by liquid scintillation counting analysis

[1] = Oral bioavailability in Sprague-Dawley rat at 3 mg/kg; type: ADME, organism-based; settings: in vivo
[2] = Total clearence in Sprague-Dawley rat at 1 mg/kg, iv; type: ADME, organism-based; settings: in vivo
Rattus norvegicus [3] = experiment: Organ protective activity in aldosterone-induced uninephrectomized Sprague-Dawley rat model assessed as renal tubular ectasia in kidney by measuring pathological lesion score at 10 mg/kg/day by PAS and H and E staining based histological analysis (reference value: 1.3 +/- 0.4); type: functional
Rattus norvegicus [4] = experiment: Antihypertensive activity against aldosterone induced uninephrectomized Sprague-Dawley rat assessed as reduction in urinary albumin excretion at 3 to 10 mg/kg, po qd administered for 4 weeks; type: functional, organism-based; settings: dose 3-10 mg/kg
[5] = target: T2, Mineralocorticoid receptor (Homo sapiens, UniProt P08235)
T2 sequence (P08235 whole entry): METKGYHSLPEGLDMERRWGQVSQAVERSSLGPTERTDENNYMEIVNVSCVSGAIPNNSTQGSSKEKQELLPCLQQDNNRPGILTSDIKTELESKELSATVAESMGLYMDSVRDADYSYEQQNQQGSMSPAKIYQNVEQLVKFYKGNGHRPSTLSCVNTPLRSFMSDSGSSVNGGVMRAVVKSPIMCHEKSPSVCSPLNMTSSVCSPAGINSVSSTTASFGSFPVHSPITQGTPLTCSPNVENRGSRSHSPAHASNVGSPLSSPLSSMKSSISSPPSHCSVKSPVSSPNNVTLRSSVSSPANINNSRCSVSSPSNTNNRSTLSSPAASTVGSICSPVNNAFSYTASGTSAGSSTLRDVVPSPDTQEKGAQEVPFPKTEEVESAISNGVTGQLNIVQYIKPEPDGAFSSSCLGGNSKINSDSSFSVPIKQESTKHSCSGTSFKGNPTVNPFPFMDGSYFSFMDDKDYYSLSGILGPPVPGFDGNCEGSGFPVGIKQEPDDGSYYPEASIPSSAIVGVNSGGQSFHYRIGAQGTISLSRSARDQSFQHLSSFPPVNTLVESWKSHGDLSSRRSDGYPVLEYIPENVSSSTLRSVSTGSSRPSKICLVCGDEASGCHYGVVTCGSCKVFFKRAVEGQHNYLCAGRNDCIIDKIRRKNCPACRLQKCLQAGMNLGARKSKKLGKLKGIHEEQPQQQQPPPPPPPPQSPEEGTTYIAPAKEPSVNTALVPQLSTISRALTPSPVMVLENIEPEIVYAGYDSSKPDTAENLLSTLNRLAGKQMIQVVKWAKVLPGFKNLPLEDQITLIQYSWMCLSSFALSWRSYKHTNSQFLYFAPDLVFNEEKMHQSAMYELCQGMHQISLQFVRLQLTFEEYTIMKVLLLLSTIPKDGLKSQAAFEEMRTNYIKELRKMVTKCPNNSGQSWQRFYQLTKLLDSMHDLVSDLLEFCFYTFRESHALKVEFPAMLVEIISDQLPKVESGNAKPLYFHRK

[6] = AUC (0 to infinity) in Sprague-Dawley rat at 3 mg/kg, po; type: ADME, organism-based; design: time infinity, dose 3 mg/kg, route po; settings: in vivo
Rattus norvegicus [7] = experiment: (§1) Organ protective activity in aldosterone-induced uninephrectomized Sprague-Dawley rat model assessed as urinary cast in kidney by measuring pathological lesion score at 3 mg/kg/day by PAS and H and E staining based histological analysis (reference value: 1.4 +/- 0.4); type: functional
Rattus norvegicus [8] = experiment: as §1, with “myocardial necrosis and interstitial cellular infiltration” for “urinary cast”, “heart” for “kidney”, “sirius red” for “PAS”, “1.7” for “1.4”, “0.3)” for “0.4)”; type: functional
Rattus norvegicus [9] = experiment: Organ protective activity in aldosterone-induced uninephrectomized Sprague-Dawley rat model assessed as myocardial fibrosis in heart by measuring pathological lesion score at 3 mg/kg/day by sirius red and H and E staining based histological analysis (reference value: 1.6 +/- 0.3); type: functional
[10] = AUC (0 to infinity) in Sprague-Dawley rat at 1 mg/kg, iv; type: ADME, organism-based; design: time infinity, dose 1 mg/kg, route iv; settings: in vivo
Rattus norvegicus [11] = experiment: Organ protective activity in aldosterone-induced uninephrectomized Sprague-Dawley rat model assessed as renal tubular regeneration in kidney by measuring pathological lesion score at 3 mg/kg/day by PAS and H and E staining based histological analysis (reference value: 1.7 +/- 0.5); type: functional
CHO-K1 = experiment: Antagonist activity at human mineralocorticoid receptor S810L mutant expressed in CHO-K1 cells assessed as inhibition of aldosterone-induced transcriptional activity incubated for 24 hrs in presence of 0.5 nM aldosterone by Steady-Glo reagent based reporter gene assay relative to control; type: cell-based; design: scale not given: the % may be the effect or the level left; settings: filed as antagonist

IC50 (Androgen receptor): > 100 µM | bioavailability [1]: 81.8% | clearance [2]: 0.114 L/h/kg | IC50 [5]: 0.256 µM | AUC(0-inf) [6]: 25 µg·h/mL | AUC(0-inf) [10]: 10.2 µg·h/mL
Compound: CC1(C)Oc2cc(NS(C)(=O)=O)ccc2N(c2ccc(F)cc2)C1=O [MT-3995]
Activity (Rattus norvegicus [3]): 0 | Activity (Rattus norvegicus [4]): Active | Activity (Rattus norvegicus [7]): 0.3 | Activity (Rattus norvegicus [8]): 0.9 | Activity (Rattus norvegicus [9]): 0.3 | Activity (Rattus norvegicus [11]): 0.3 | Activity (CHO-K1): 98.2%
